In ChEMBL document CHEMBL5236560, “Structure-Based Discovery of Potent CARM1 Inhibitors for Solid Tumor and Cancer Immunology Therapy” (J Med Chem, 2021) one finds inhibition in vivo, IC50 and Activity data, which are given here for one compound.

The structures appear in SMILES notation.

The test system of data set [1] is A-375. The experiment in a line: Antitumor activity against human A-375 cells xenografted in po dosed nude mouse assessed as tumor growth inhibition at 100 mg/kg administered once daily measured after 21 days relative to control. The following applies: A-375, 504 h, time 21 day, read-out: TGI. The format is functional.
Data set [2] deals with T1, Protein arginine N-methyltransferase 7 (Homo sapiens, UniProt Q9NVM4).
T1 sequence (Q9NVM4 whole entry): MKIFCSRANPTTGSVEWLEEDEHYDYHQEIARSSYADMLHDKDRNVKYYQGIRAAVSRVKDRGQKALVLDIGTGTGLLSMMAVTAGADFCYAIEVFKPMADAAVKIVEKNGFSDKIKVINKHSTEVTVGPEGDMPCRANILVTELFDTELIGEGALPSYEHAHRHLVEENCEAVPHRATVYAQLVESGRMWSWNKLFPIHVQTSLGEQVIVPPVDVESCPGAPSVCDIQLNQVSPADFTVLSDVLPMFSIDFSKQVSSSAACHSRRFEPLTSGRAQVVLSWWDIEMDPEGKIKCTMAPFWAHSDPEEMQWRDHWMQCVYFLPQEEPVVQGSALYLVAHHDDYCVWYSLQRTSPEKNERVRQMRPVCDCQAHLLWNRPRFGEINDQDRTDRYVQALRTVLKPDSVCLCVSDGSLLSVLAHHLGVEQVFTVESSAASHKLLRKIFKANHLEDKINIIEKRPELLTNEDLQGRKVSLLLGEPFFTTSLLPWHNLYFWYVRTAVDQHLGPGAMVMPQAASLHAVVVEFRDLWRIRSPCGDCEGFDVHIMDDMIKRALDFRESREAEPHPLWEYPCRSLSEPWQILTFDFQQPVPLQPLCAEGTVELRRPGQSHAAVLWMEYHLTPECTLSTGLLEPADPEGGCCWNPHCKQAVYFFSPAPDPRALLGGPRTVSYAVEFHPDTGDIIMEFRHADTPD
The experiment in a line: Inhibition of PRMT7 (unknown origin) by radioisotope based assay.

In data set [3] the test system is MC-38. The experiment in a line: Antitumor activity against mouse MC38 cells implanted in po dosed C57BL/6J mouse assessed as tumor growth inhibition at 100 mg/kg administered once daily measured after 32 days relative to control. The format is functional. The following applies: MC-38, 768 h, time 32 day, read-out: TGI.
The subject of data set [4] is MC-38. The experiment in a line: Antitumor activity against mouse MC38 cells implanted in po dosed BALB/c nude mouse assessed as tumor growth inhibition at 100 mg/kg administered once daily measured after 18 days relative to control. The format is functional. Conditions: MC-38, 432 h, time 18 day, read-out: TGI.
In data set [5] the target is Protein arginine N-methyltransferase 3 (Homo sapiens, UniProt O60678). The experiment in a line: Inhibition of PRMT3 (unknown origin) incubated for 15 mins measured after 60 min by AlphaLISA assay. (In general: In Alpha technology, singlet oxygen from a donor bead excites a nearby acceptor bead.)
In data set [6] the target is Protein arginine N-methyltransferase 6 (Homo sapiens, UniProt Q96LA8). The experiment in a line: Inhibition of PRMT6 (unknown origin) incubated for 15 mins measured after 60 min by AlphaLISA assay.
Data set [7] addresses Protein arginine N-methyltransferase 1 (Homo sapiens, UniProt Q99873). The experiment in a line: Inhibition of PRMT1 (unknown origin) incubated for 15 mins measured after 60 min by AlphaLISA assay.
Data set [8] in a line: Toxicity in po dosed nude mouse xenografted with human A-375 cells assessed as change in body weight at 100 mg/kg administered once daily measured after 21 days. Conditions: in vivo, 504 h, time 21 day. The format is organism-based.
The target of data set [9] is Protein arginine N-methyltransferase 8 (Homo sapiens, UniProt Q9NR22). The experiment in a line: Inhibition of PRMT8 (unknown origin) incubated for 15 mins measured after 60 min by AlphaLISA assay.
Data set [10] has as its target Protein arginine N-methyltransferase 5 (Homo sapiens, UniProt O14744). The experiment in a line: Inhibition of PRMT5 (unknown origin) incubated for 15 mins measured after 60 min by AlphaLISA assay.
Data set [11] concerns BT-549. The experiment in a line: Induction of apoptosis in human BT-549 cells at 15 uM measured after 96 hrs by Annexin V-FITC/PI staining based flow cytometric analysis (reference value: 9.7 %). It counts as functional. Background: Flow cytometry measures light scatter and fluorescence of single cells or particles in a stream.
The test system of a further data set is SMMC-7721. The experiment in a line: Antiproliferative activity against human SMMC-7721 cells assessed as cell growth inhibition incubated for 6 days by SRB assay. Conditions: SMMC-7721, 144 h. It counts as functional, cell-based. (In general: Sulforhodamine B stains cellular protein and so reports cell mass.)
Data set [12] has as its system A-375. The experiment in a line: Induction of apoptosis in human A-375 cells at 15 uM measured after 96 hrs by Annexin V-FITC/PI staining based flow cytometric analysis (reference value: 5.6 %). The format is functional.
In data set [13] the test system is ASPC1. The experiment in a line: Antiproliferative activity against human ASPC1 cells assessed as cell growth inhibition incubated for 6 days by SRB assay. The format is functional, cell-based. The following applies: ASPC1, 144 h.
The subject of data set [14] is BT-549. The experiment in a line: Antiproliferative activity against human BT-549 cells assessed as cell growth inhibition incubated for 6 days by SRB assay. The format is functional, cell-based. Conditions: BT-549, 144 h.
For data set [15], the system named is ASPC1. The experiment in a line: Induction of apoptosis in human ASPC1 cells at 15 uM measured after 96 hrs by Annexin V-FITC/PI staining based flow cytometric analysis (reference value: 6.1 %). It counts as functional.
Another data set relates to MDA-MB-453. The experiment in a line: Antiproliferative activity against human MDA-MB-453 cells assessed as cell growth inhibition incubated for 6 days by SRB assay. It counts as functional, cell-based. Conditions: MDA-MB-453, 144 h.
The subject of data set [16] is BT-549. The experiment in a line: Antitumor activity against human BT-549 cells xenografted in po dosed nude mouse assessed as tumor growth inhibition at 125 mg/kg administered once daily measured after 18 days relative to control. It counts as functional. The following applies: BT-549, 432 h, time 18 day, read-out: TGI.
The subject of data set [17] is A-375. The experiment in a line: Antiproliferative activity against human A-375 cells assessed as cell growth inhibition incubated for 6 days by SRB assay. It counts as functional, cell-based. The following applies: A-375, 144 h.
Data set [18] concerns BT-549. The experiment in a line: Antitumor activity against human BT-549 cells xenografted in po dosed nude mouse assessed as tumor growth inhibition at 75 mg/kg administered once daily measured after 18 days relative to control. The format is functional. Conditions: BT-549, 432 h, time 18 day, read-out: TGI.
Data set [19] in a line: Toxicity in po dosed nude mouse xenografted with human BT-549 cells assessed as change in body weight at 75 to 125 mg/kg administered once daily measured after 18 days. The format is organism-based. The following applies: in vivo, 432 h, dose 75-125 mg/kg, time 18 day.

Sequence of Protein arginine N-methyltransferase 3 (O60678 whole entry): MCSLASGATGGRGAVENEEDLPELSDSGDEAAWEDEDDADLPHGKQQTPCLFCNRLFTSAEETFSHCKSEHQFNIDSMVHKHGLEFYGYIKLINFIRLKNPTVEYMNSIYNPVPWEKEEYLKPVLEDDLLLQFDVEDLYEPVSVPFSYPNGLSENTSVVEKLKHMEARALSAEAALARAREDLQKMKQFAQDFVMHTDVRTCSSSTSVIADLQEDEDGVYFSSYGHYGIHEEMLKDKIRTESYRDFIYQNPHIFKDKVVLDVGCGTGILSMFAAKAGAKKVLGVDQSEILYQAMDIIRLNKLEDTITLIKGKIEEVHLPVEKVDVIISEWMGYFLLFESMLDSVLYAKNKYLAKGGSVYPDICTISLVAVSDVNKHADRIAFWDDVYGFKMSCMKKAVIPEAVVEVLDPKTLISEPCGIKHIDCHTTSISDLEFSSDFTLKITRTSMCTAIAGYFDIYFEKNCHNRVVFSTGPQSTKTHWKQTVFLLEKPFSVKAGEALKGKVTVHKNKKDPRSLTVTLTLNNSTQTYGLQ
Sequence of Protein arginine N-methyltransferase 6 (Q96LA8 whole entry): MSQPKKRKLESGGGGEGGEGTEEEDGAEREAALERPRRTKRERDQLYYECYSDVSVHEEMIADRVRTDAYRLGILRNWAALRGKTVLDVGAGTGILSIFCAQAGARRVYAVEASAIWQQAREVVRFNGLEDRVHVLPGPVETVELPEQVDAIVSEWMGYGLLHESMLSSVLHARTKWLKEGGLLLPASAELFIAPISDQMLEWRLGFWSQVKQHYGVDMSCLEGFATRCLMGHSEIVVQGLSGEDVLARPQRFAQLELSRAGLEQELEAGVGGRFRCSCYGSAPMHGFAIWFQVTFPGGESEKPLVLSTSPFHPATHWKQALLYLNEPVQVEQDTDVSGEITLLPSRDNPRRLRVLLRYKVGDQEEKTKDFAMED
Sequence of Protein arginine N-methyltransferase 5 (O14744 whole entry): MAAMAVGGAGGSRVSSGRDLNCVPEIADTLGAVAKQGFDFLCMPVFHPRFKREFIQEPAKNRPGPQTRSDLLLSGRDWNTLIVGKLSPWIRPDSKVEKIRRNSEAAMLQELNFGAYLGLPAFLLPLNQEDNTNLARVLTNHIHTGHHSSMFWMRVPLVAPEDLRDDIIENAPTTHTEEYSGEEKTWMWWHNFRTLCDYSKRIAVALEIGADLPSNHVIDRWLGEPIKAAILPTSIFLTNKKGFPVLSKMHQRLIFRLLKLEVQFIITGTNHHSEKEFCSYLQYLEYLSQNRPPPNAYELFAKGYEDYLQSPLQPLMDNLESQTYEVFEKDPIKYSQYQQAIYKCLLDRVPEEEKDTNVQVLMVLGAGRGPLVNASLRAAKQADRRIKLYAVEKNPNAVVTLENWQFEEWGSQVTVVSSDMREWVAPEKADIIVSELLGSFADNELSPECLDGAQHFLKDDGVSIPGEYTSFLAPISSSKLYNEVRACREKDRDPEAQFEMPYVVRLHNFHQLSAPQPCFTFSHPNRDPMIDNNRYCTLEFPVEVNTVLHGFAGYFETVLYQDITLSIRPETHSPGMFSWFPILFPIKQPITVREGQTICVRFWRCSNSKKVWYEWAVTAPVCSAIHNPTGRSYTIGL
Sequence of Protein arginine N-methyltransferase 8 (Q9NR22 whole entry): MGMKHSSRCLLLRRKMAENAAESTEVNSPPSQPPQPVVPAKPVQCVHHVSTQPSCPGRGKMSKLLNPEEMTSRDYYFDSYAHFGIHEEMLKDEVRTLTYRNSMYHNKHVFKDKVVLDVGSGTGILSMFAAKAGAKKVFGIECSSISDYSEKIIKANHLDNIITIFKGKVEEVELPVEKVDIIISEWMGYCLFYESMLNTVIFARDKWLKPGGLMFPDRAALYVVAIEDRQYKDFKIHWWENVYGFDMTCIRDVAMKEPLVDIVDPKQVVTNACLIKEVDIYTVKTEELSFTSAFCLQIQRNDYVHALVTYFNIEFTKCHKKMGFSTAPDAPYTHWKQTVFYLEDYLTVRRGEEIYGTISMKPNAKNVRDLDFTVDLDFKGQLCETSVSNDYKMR
Sequence of Protein arginine N-methyltransferase 1 (Q99873 whole entry): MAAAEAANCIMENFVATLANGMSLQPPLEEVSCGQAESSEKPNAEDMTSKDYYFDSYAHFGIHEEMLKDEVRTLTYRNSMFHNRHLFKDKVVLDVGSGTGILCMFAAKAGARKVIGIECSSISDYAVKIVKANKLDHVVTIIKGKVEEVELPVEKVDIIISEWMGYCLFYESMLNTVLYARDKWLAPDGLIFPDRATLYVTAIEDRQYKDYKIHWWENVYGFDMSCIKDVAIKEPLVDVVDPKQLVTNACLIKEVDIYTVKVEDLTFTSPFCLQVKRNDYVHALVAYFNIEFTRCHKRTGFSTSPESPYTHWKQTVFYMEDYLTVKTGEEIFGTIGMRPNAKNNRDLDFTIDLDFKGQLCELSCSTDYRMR

As for `CNCCNCc1cccc(-c2nc(Nc3ccccc3)c(C)c(-c3c(C)noc3C)n2)c1`, the results for the inhibition in vivo at 100 mg/kg in the data set on A-375 [1], in the data set on MC-38 [3] and in the data set with MC-38 [4] were 69%, 79.6% and 23.3%, respectively. Moreover, the IC50 in data set [2] is > 50 µM; in [5] it was > 1 µM; in [6], 0.49 µM; in [7] it was > 1 µM; in data set [9] it was 0.92 µM; in data set [10] it was > 50 µM. Further, the IC50 with SMMC-7721 stood at 5.5 µM; in the data set on ASPC1 [13] it was 12.3 µM; in the data set on BT-549 [14] it was 8.8 µM; in the data set with MDA-MB-453 it was 5.7 µM; with A-375 [17], 5.9 µM. Besides, the Activity entry in data set [8] is on record as “Non-Toxic”; in the data set with BT-549 [11], 46.1%; in the data set on A-375 [12] it was 44%; with ASPC1 [15], 17.2%; in data set [19] it was “Non-Toxic”. In addition, the inhibition in vivo at 125 mg/kg with BT-549 [16] worked out at 61.5%. The inhibition in vivo at 75 mg/kg in the data set on BT-549 [18] is 38%.

A word on the IC50: it is the concentration that inhibits the measured activity by half.
